These results are taken from ChEMBL document CHEMBL1201862, “PubChem BioAssay data set” (2004).

Molecules are shown by their SMILES. Calls of active or inactive are those of the source. Where only a bound is given, the exact number is not on record here.

Test [1] deals with Candida albicans. The experiment in a line: growth inhibition of azole-resistant C. albicans, dose response, CaCi-8 strain, Alamar Blue, dry powder, set 2 (AID 488909). The format is functional, organism-based.
Test [2] relates to Candida albicans. The experiment in a line: reversal of fluconazole resistance in C. albicans, dose response, CaCi-2 strain, Alamar Blue, dry powder, set 3 (AID 488907). It counts as functional, organism-based.
For test [3], the target named is Dual specificity tyrosine-phosphorylation-regulated kinase 1A (Rattus norvegicus, UniProt Q63470). The format is biochemical, Homo sapiens.
The target in test [4] is T1, Endoribonuclease toxin MazF (Escherichia coli K-12, UniProt P0AE70).
T1 sequence (P0AE70 whole entry): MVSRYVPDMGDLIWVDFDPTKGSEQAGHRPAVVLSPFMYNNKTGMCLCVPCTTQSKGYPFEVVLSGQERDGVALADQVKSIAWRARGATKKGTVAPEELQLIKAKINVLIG
Put plainly: fluorescent RNA oligo signal without MazF, dose response, counter-screen for MazEF activator project, biochemical, fluorescence, single-stranded RNase substrate (AID 588502). The format is functional.

Test [5] in a line: ADP-Glo luciferase interference without Dyrk1A, dose response, artefact control for Dyrk1A inhibitor project, biochemical, luminescence, cherry-pick, set 02 (AID 588348).
Test [6] deals with SN12K1. Put plainly: cells. The format is functional. The settings on record: Homo sapiens, SN12K1.
For test [7], the system named is P388/ADR. The experiment in a line: cells. The note with it: Mus musculus, P388/ADR. The format is functional.
The test system of test [8] is P388. The experiment in a line: cells. It counts as functional. The note with it: Mus musculus, P388.
The target in test [9] is T1, Endoribonuclease toxin MazF. Put plainly: MazF toxin RNase activators, dose response, biochemical, fluorescence, single-stranded RNA substrate, uHTS hits (AID 588481). The format is functional.
In test [10] the target is FAD-linked sulfhydryl oxidase ALR (Homo sapiens, UniProt P55789). Put plainly: inhibitors of human ALR sulfhydryl oxidase, dose response, biochemical, H2O2 detection, luminescence, cherry-pick (AID 493248).
The target of test [11] is Large T antigen (Simian virus 40, UniProt P03070). The format is functional, Betapolyomavirus macacae.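 Further: Confirmatory-stage PubChem screen for compounds that inhibit SV40 T antigen.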
Test [12] has as its target Voltage-gated inwardly rectifying potassium channel KCNH2 (Homo sapiens, UniProt Q12809). Put plainly: hERG protection from proarrhythmic block, potency, dose response, cell-based, thallium flux (AID 2121). It counts as ADME.
For test [13], the target named is Delta-type opioid receptor (Homo sapiens, UniProt P41143). The experiment in a line: Counterscreen for agonists of heterodimerization of the mu 1 (OPRM1) and delta 1 (OPRD1) opioid receptors: Luminescence-based cell-based high throughput dose response assay to identify agonists of OPRD1 homodimerization. [Related pubchem assays (depositor defined):AID504326, AID504355, AID504692, AID504904, AID504905]. It counts as functional.

For test [14], the target named is 5-hydroxytryptamine receptor 5A (Homo sapiens, UniProt P47898). The experiment in a line: Counterscreen for agonists of OPRM1-OPRD1 heterodimerization: luminescence-based cell-based high throughput dose response assay to identify agonists of 5-hydroxytryptamine (serotonin) 5A receptor (HTR5A). [Related pubchem assays (depositor defined):AID504326, AID504355, AID504692, AID504904, AID504905]. It counts as functional.

Test [15] concerns the target Mu-type opioid receptor (Homo sapiens, UniProt P35372). The experiment in a line: Counterscreen for agonists of heterodimerization of the mu 1 (OPRM1) and delta 1 (OPRD1) opioid receptors: Luminescence-based cell-based high throughput dose response assay to identify agonists of OPRM1 homodimerization. It counts as functional.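 Further: U2OS cells expressing OPRM1 and beta-arrestin as split beta-galactosidase partners.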
The test system of test [16] is HEK293. The experiment in a line: inhibitors of LMP1-driven NF-kB reporter, dose response, cell-based, HEK293, luciferase, cherry-pick (AID 588343). The note with it: Homo sapiens. It counts as functional.
Test [17] deals with Phospholipase D1 (Homo sapiens, UniProt Q13393). The experiment in a line: PLD1 inhibitor potency in cells, dose response (AID 602151).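 Further: cellular PLD1 assay in Calu-1 cells stimulated with PMA.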 The format is functional.
The target in test [18] is Phospholipase D2 (Homo sapiens, UniProt O14939). The experiment in a line: PLD2 inhibitor potency in cells, dose response (AID 602147).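 Further: cellular assay in HEK293 cells overexpressing GFP-tagged PLD2.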 It counts as functional.
In test [19] the target is T1, Endoribonuclease toxin MazF. The experiment in a line: SAR analysis of small molecule activators of the MazEF TA System via a fluorescence-based single-stranded RNase assay counterscreen. [Related pubchem assays (depositor defined):AID504720, AID504743]. It counts as functional.
The subject of test [20] is MEF. The experiment in a line: SAR analysis of small molecule cytotoxicity of MazEF TA System activators in embryonic fibroblast (MEF) cells. [Related pubchem assays (depositor defined):AID504720, AID504743]. The format is functional. The note with it: Mus musculus.
The target in test [21] is T1, Endoribonuclease toxin MazF. The experiment in a line: MazF endoribonuclease activators, SAR follow-up, biochemical, fluorescence, single-stranded RNA substrate (AID 588603). It counts as functional.
Test [22] addresses T2, Short transient receptor potential channel 4 (Mus musculus, UniProt Q9QUQ5).
T2 sequence (Q9QUQ5 whole entry): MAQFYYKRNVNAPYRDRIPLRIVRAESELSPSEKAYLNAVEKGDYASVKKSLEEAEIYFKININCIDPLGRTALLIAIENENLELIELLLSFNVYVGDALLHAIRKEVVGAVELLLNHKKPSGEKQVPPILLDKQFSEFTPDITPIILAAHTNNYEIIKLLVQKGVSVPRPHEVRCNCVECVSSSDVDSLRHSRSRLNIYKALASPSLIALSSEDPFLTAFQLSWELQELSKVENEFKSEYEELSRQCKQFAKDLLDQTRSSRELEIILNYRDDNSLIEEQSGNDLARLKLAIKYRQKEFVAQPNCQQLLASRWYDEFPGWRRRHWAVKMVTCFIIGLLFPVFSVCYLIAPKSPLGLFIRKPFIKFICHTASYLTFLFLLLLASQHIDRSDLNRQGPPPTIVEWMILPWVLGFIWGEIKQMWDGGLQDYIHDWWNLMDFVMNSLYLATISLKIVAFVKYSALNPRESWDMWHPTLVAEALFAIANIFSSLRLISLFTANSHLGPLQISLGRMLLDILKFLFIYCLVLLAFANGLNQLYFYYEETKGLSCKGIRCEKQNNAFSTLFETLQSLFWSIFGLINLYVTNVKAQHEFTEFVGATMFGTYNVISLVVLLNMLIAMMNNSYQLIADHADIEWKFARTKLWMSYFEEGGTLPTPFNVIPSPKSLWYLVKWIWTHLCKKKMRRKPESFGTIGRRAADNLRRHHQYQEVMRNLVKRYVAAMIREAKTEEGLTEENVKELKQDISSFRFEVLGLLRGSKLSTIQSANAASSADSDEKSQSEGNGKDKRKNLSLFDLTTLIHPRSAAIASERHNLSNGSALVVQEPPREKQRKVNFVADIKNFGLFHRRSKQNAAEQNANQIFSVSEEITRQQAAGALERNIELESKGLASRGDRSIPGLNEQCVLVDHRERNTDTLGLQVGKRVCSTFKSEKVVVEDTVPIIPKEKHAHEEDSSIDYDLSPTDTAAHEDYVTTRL
Put plainly: SAR Analysis for the identification of selective inhibits of the transient receptor potential cation channel C4 (TRPC4): Automated Electrophysiology_2. [Related pubchem assays (depositor defined):AID2256]. It counts as functional.

Test [23] addresses T2, Short transient receptor potential channel 4. The experiment in a line: TRPC4 inhibitor concentration-response, dose response, cell-based, HEK293 TRPC4/mu-opioid, DAMGO stimulus, Fluo-4 (AID 492994). It counts as functional.
Test [24] relates to HEK293. Put plainly: cells. The settings on record: Homo sapiens. The format is functional, cell-based.
The target of test [25] is T3, Nuclear receptor subfamily 0 group B member 1 (Homo sapiens, UniProt P51843).
T3 sequence (P51843 whole entry): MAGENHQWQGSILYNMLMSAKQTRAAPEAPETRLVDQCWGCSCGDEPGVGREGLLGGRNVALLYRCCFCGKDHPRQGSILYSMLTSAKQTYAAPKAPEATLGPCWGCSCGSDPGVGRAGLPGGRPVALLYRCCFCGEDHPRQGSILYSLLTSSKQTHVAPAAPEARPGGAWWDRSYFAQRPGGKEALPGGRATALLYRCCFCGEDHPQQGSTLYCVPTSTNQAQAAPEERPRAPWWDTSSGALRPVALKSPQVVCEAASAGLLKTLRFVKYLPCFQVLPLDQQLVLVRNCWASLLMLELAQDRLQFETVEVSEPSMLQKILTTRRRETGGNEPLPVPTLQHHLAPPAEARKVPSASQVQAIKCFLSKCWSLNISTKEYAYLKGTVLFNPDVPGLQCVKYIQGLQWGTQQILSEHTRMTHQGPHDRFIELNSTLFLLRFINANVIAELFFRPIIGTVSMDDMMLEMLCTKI
The experiment in a line: Luminescence-based cell-based high throughput dose response assay for inhibitors of the orphan nuclear receptor subfamily 0, group B, member 1 (DAX1; NR0B1). [Related pubchem assays (depositor defined):AID504766, AID504790]. It counts as functional.

FAD-linked sulfhydryl oxidase ALR, sequence (P55789 whole entry): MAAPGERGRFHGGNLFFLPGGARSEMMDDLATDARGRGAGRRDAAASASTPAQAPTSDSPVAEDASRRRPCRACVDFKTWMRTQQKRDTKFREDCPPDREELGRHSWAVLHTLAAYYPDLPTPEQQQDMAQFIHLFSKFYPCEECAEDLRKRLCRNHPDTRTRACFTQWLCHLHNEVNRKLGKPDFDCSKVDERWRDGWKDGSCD
Large T antigen, sequence (P03070 whole entry): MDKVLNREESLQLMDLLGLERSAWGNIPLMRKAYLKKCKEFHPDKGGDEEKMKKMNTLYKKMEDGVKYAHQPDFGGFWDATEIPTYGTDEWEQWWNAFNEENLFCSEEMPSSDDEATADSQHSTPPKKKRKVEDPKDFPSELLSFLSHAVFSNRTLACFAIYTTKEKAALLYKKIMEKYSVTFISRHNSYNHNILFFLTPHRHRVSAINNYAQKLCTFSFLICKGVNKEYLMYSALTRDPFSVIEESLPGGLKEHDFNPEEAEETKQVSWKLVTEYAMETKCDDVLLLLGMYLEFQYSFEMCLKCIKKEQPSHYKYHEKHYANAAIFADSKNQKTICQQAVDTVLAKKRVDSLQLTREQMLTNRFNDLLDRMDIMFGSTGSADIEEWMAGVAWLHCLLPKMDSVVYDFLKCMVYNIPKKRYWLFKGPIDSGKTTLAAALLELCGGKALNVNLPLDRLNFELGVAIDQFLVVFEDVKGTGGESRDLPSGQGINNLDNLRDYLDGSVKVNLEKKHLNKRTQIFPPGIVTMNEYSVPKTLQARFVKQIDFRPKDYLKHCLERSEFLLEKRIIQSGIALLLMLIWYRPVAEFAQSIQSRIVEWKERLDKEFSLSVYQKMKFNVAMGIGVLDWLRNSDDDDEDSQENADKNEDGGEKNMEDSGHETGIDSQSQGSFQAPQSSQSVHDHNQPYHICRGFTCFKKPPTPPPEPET
Delta-type opioid receptor, sequence (P41143 whole entry): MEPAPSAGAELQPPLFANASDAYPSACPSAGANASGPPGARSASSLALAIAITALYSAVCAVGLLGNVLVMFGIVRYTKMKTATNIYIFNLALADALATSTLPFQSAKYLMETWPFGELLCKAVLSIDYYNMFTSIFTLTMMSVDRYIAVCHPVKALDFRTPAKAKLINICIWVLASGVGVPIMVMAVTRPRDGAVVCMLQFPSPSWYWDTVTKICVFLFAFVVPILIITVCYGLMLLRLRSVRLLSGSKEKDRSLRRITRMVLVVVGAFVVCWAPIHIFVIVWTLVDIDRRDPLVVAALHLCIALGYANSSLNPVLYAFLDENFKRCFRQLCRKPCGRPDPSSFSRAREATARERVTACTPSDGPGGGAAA
Mu-type opioid receptor, sequence (P35372 whole entry): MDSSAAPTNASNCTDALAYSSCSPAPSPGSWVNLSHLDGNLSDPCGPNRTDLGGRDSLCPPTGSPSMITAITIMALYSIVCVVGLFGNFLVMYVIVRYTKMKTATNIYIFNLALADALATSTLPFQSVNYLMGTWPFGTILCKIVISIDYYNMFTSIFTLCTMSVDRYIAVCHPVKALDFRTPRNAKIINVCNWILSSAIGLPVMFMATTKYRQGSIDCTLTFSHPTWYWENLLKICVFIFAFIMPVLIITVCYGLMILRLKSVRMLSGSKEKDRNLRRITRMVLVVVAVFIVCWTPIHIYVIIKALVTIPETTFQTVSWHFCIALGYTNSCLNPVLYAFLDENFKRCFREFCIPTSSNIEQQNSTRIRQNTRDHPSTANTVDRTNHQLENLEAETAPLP
Phospholipase D2, sequence (O14939 whole entry): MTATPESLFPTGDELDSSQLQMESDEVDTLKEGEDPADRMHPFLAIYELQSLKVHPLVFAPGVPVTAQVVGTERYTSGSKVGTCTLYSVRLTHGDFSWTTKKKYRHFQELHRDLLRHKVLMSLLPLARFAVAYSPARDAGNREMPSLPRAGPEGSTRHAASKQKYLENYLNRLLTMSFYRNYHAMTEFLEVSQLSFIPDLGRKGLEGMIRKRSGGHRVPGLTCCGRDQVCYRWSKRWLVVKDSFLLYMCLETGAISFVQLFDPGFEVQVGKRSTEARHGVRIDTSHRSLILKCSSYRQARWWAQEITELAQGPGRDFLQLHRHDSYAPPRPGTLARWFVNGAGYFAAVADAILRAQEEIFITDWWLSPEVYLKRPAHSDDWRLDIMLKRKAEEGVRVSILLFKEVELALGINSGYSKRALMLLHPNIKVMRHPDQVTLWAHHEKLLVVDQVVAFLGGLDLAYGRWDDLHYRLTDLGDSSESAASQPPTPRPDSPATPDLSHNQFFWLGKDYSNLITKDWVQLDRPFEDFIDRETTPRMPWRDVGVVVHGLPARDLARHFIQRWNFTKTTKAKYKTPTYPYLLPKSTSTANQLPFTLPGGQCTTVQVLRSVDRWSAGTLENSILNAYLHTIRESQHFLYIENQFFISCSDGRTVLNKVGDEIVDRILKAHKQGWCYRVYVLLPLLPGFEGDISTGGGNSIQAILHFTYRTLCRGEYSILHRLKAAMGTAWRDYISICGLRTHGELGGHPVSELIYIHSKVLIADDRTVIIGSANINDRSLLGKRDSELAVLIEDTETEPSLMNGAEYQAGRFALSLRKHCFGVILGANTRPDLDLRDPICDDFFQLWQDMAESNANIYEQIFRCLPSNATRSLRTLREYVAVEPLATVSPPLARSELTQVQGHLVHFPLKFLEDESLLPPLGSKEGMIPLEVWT
5-hydroxytryptamine receptor 5A, sequence (P47898 whole entry): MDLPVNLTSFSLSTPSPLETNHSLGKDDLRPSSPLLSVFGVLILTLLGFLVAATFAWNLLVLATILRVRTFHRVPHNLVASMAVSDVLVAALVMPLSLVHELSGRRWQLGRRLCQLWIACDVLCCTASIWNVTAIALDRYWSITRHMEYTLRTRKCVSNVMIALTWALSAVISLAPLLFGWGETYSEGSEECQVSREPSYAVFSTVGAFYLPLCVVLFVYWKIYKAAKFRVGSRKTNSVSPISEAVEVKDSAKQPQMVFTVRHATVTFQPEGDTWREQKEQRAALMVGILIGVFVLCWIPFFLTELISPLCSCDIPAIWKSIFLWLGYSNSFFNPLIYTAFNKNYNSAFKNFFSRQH
Voltage-gated inwardly rectifying potassium channel KCNH2, sequence (Q12809 whole entry): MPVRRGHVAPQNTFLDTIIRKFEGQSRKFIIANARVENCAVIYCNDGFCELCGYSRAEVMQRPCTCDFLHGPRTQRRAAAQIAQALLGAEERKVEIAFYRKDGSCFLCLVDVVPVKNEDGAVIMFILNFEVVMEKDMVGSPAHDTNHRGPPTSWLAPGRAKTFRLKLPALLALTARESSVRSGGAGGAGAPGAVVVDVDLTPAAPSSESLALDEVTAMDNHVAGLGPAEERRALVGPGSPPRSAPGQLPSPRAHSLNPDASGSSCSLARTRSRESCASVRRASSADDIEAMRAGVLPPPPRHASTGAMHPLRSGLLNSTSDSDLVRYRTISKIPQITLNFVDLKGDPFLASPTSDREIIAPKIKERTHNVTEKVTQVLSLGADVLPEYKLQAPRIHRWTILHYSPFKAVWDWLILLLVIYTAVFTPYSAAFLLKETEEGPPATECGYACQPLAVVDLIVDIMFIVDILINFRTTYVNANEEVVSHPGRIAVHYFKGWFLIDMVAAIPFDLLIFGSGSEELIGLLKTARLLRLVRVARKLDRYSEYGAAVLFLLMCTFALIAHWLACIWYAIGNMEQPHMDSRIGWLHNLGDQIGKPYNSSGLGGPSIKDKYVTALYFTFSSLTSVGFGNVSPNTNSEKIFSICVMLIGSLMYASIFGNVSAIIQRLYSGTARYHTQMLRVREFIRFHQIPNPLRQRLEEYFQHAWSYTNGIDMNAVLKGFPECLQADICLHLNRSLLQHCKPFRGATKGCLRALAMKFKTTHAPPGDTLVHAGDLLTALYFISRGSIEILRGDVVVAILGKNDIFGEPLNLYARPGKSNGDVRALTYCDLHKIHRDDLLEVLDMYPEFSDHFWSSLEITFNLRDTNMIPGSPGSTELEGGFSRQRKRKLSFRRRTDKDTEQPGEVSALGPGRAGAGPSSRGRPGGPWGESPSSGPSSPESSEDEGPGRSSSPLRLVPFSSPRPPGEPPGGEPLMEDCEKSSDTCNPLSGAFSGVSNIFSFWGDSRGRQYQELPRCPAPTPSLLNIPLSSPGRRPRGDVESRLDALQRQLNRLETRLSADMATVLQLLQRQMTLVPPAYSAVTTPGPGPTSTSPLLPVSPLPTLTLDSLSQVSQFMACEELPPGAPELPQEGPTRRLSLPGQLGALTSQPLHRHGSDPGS

For the compound `CC(C)C(=O)N1CCN(c2ccnc3cc(Cl)ccc23)CC1`, the AC50 in test [1] is < 0.195 µM (active); in test [2] it was 3.03 µM (active).

Regarding `Oc1cc(O)cc(/C=C/c2ccc(O)c(O)c2)c1` [PICEATANNOL], the AC50 in test [3] is 7.53 µM (active); in test [5], 27.7 µM (active); in test [10], 0.689 µM (active). Also, the EC50 in test [4] and in test [9] was > 99 µM (inactive) throughout. For the same compound, the figures for the GI50 in test [6], in test [7] and in test [8] were 3.94 µM (inactive), 7.76 µM (inactive) and 5.48 µM (inactive), respectively. Moreover, in [11], the IC50 is 16.4 µM (active).

`Cc1ccccc1Cn1c(O)c(N=NC(S)=Nc2ccccc2F)c2ccccc21`: the EC50 in [12] is 0.87 µM (active); in test [13], > 92.5 µM (inactive); in test [14] it was > 92.5 µM (inactive); in test [15] it was > 92.5 µM (inactive). Also, the AC50 in test [16] was 3.18 µM (active).

In the case of `C[C@@H](CN1CCC(n2c(=O)[nH]c3ccccc32)CC1)NC(=O)c1ccc(C(F)(F)F)cc1`, the IC50 was 0.121 µM (active) in [17] and 20 µM (active) in test [18].

Consider `Cc1ccc(CNC(=O)c2ccc(CNS(=O)(=O)c3ccc4c(c3)C(C)(C)C(=O)N4C)cc2)o1`, for which the EC50 in test [4] was > 99 µM (inactive); in test [19], > 99 µM (inactive); in [9], 9.43 µM (active); in test [21], 9.72 µM (active). Besides, the CC50 in [20] is > 99 µM (inactive).

As for `Cc1cc(N2CC(C)CC(C)C2)nc2ccccc12` (configuration not stated), the IC50 was 11.9 µM (active) in test [22] and 12.6 µM (active) in [23].

With `Cc1cc(OCC(=O)N2CCC(C(N)=O)CC2)c2c(C)cc(=O)oc2c1`, the IC50 in test [24] and in test [25] was > 67.6 µM (inactive) each time.
